Activity calls are given as the source filed them. No rule for the calls is given here.
Each compound was assayed against transactivating tegument protein VP16 (Human herpesvirus 1), as a GAL4-VP16 activation-domain luciferase reporter (assay: GAL4-VP16 reporter repression curves – cell-based, luminescence, high throughput, SRC3 series, counter-screen for SRC3 inhibitor project, dose response (AID 602167)). Conditions: VP16 transactivation luciferase reporter cells.
For `CC(=O)c1cccc(NC(=O)Nc2ccc3c(c2)N(C)C(=O)CS3)c1`, the IC50 was “inactive”. For `O=C(CCl)N(c1ccccc1)C1CCS(=O)(=O)C1` (stereo not given), the IC50 was “inactive”. With `CCC(=O)c1ccc(O)c(CC=C(C)C)c1` the IC50 was 9.84 µM. `N#Cc1c2ccc(O)cc2n2ccccc12` was tested, and the IC50 was > 35.9 µM (inactive). `O=C(CCl)N(c1ccccc1)C1CCCCC1` was tested, and the IC50 was “inactive”. For `C=CCn1c(O)c(C(C)=NCc2cc(OC)cc(OC)c2)c(=O)[nH]c1=O`, the IC50 was “inactive”. In the case of `CN(Cc1cnc2nc(N)nc(N)c2n1)c1ccc(C(=O)N[C@@H](CCC(=O)O)C(=O)O)cc1`, the IC50 is reported as > 35.9 µM (inactive). Work on `O=S(=O)(/C(=C\c1ccc(C(F)(F)F)cc1)c1nc2ccccc2[nH]1)c1ccccc1` yielded an IC50 of 3.93 µM. For `O=C(NCCCn1ccnc1)c1ccc(N2CCCCCC2)c([N+](=O)[O-])c1`, the IC50 was “inactive”. `O=C(OCc1ccccc1)c1ccc(NCc2cc(O)ccc2O)cc1` was tested, and the IC50 was 5.95 µM. For `CCOc1cc(C(N)=O)cc(Br)c1OC`, the IC50 was > 35.9 µM (inactive). In the case of `CCCC(=O)NC(c1ccc(Cl)cc1Cl)c1ccc2cccnc2c1O` (stereo not given), the IC50 is reported as 4.42 µM. For `Cn1cnc([N+](=O)[O-])c1Sc1nc(N)nc2c1ncn2C1OC(CO)C(O)C1O` (stereo not given), the IC50 was 7.47 µM. In the case of `CCCc1c(C)nc2ccccc2c1SCCC#N`, the IC50 is reported as “inactive”. For `COc1ccc(C)cc1NS(=O)(=O)c1ccc(NC(=O)CN(c2cc([N+](=O)[O-])ccc2C)S(C)(=O)=O)cc1`, the IC50 was “inactive”. `Cc1ccc(-n2c(Cl)c(Cl)nc(Cl)c2=O)cc1` showed an IC50 of 4.07 µM. For `Oc1ccc(C=NNc2ccccn2)c(O)c1`, the IC50 was “inactive”. For `Cc1ccc2nc(C(F)(F)F)c(C#N)c(N)c2c1`, the IC50 was “inactive”. `CC(C)(C)c1ccc(Oc2ccc(N)cn2)cc1` was tested, and the IC50 was “inactive”. `COc1cc(C(=O)N/N=C(\c2ccccc2)c2ccccn2)cc(OC)c1OC` showed an IC50 of 7.23 µM. `CCCCN1C=CC(=C2C(=O)c3ccccc3C2=O)C=C1` showed an IC50 of 5.59 µM. With `Cc1sc2ncnc(N3CCC(C(=O)Nc4ccccc4C(C)(C)C)CC3)c2c1C` the IC50 was 8.88 µM. `COc1cc(/C=C(/C(=O)c2cccs2)c2nc3ccccc3[nH]2)cc(OC)c1O` showed an IC50 of 8.01 µM. In the case of `CC[C@@]1(O)C(=O)OCc2c1cc1n(c2=O)Cc2cc3c(NC(=O)CN)cccc3nc2-1`, the IC50 is reported as > 35.9 µM (inactive). In the case of `O=C(Nc1ccc(OCC(=O)N2CCOCC2)cc1)c1cncc(Br)c1`, the IC50 is reported as “inactive”. With `COc1ccc(/C=C2\CN(Cc3ccccc3)C/C(=C\c3ccc(OC)c(O)c3)C2=O)cc1O` the IC50 was “inactive”. For `COc1ccc(-c2nsc3c(N4CCCCC4)ncnc23)cc1`, the IC50 was “inactive”. For `CCOc1ccccc1-n1c(SCC(=O)Nc2ccccc2C(=O)O)nc2ccccc2c1=O`, the IC50 was “inactive”. With `O=C(N/N=C/c1cc(Br)c(Br)s1)c1ccncc1` the IC50 was “inactive”. In the case of `C=CC[n+]1c(-c2ccc(C)cc2)csc1Nc1ccc(NC(C)=O)cc1`, the IC50 is reported as > 35.9 µM (inactive). In the case of `Fc1ccc(CSc2nnc(-c3ccncc3)o2)cc1`, the IC50 is reported as 3.81 µM. For `C(=NNc1ccc2ccccc2n1)c1ccccn1`, the IC50 was “inactive”. `CC(C)N(c1ccccc1)c1ccc(NC(=O)CCl)cc1` was tested, and the IC50 was “inactive”. Work on `Nc1ncccc1C(=O)OCC(=O)N1CCN(S(=O)(=O)c2ccc(Cl)cc2)CC1` yielded an IC50 of 9.87 µM. `Cc1cccc2sc(NNC(=O)c3ccc(S(=O)(=O)N4CC(C)CC(C)C4)cc3)nc12` (stereo not given) gave an IC50 of 7.55 µM. In the case of `O=C(CNc1cccc([N+](=O)[O-])c1)N/N=C/c1ccc([N+](=O)[O-])o1`, the IC50 is reported as “inactive”. `CCN(C(C)=O)c1cnc(C=NNC(N)=S)c2ccccc12` gave an IC50 of 4.4 µM. Work on `COc1ccc(C(C(=O)NC2CCCCC2)N(C(=O)CCl)c2ccc(OC)cc2)cc1` (stereo not given) yielded an IC50 of 6.59 µM. In the case of `CC(C)(C)c1ccc(-c2noc(CCC(=O)Nc3cccnc3)n2)cc1`, the IC50 is reported as “inactive”. With `C/C(=N\NC(=S)Nc1cc(S(=O)(=O)N2CCOCC2)ccc1Cl)c1ccccc1F` the IC50 was “inactive”. With `CS(=O)c1nc(-c2ccc(Br)cc2)cc(-c2ccccc2)c1C#N` (stereo not given) the IC50 was “inactive”. In the case of `COc1ccc(C(C(=O)NC2CCCCC2)N(C(=O)CCl)c2ccc(Cl)cc2)cc1` (stereo not given), the IC50 is reported as 5.27 µM. `CO[C@@]12[C@@H]3N[C@@H]3CN1C1=C(C(=O)C(N)=C(C)C1=O)[C@@H]2COC(N)=O` was tested, and the IC50 was > 35.8 µM (inactive). For `COc1cc(/C=C2\CC(C(C)(C)C)C/C(=C\c3cc(OC)c(OC)c(OC)c3)C2=O)cc(OC)c1OC` (stereo not given), the IC50 was 4.47 µM. `Cc1ccc(C(=O)Nc2cnc3ccccc3c2)cc1` was tested, and the IC50 was 8.49 µM. For `O=c1[nH]c2ccccc2n1C1CCN(C(c2ccccc2)c2nnnn2-c2ccc3c(c2)OCCO3)CC1` (stereo not given), the IC50 was “inactive”. With `C=CS(=O)(=O)N(Cc1ccc(Cl)c(Cl)c1)C[C@@H](O)CO` the IC50 was “inactive”. Compound `O=C(N/N=C(\c1ccccc1)c1ccccn1)c1ccccc1Cl` has an IC50 of 8.52 µM. With `Cc1cc(-c2nnc(SCC(=O)Nc3ccccc3C(F)(F)F)o2)c(C)n1-c1ccccc1` the IC50 was > 35.9 µM (inactive). With `O=C(Nc1cccnc1)c1ccc(C(=O)Nc2cccnc2)cc1` the IC50 was > 35.9 µM (inactive). For `CCc1ccc(-c2nc(CSCC(=O)NCc3ccco3)c(C)o2)cc1`, the IC50 was “inactive”. `O=[N+]([O-])c1nn(-c2ccc3c(c2)OCCO3)n(O)c1=Nc1ccccc1` was tested, and the IC50 was 9.18 µM. `O=C(c1ccncc1)N(Cc1cc2ccccc2[nH]c1=O)C1CCCCC1` was tested, and the IC50 was 7.96 µM. With `O=C(CC1CS(=O)(=O)CC1CC(=O)Nc1ccc2c(c1)OCCO2)Nc1ccc2c(c1)OCCO2` (stereo not given) the IC50 was “inactive”. For `COc1cc(C2c3cc4c(cc3C(OC3OC5COC(c6cccs6)OC5C(O)C3O)C3COC(=O)C23)OCO4)cc(OC)c1O` (stereo not given), the IC50 was > 35.8 µM (inactive). `CC(=O)NC(c1cc(Cl)c2cccnc2c1O)C(C)C` (stereo not given) was tested, and the IC50 was “inactive”. In the case of `O=C(COc1ccc(Cl)cc1)Nc1ccc(C(=O)NCc2cccnc2)cc1`, the IC50 is reported as “inactive”. For `COc1ccc(OC)c(Cc2cnc3nc(N)nc(N)c3c2C)c1`, the IC50 was > 35.9 µM (inactive). `CC1(C)N=C(N)N=C(N)N1CCCCc1ccccc1` gave an IC50 of 5.25 µM. In the case of `CCOC(=O)CC(=O)CSc1nccc(-c2cccnc2)n1`, the IC50 is reported as “inactive”. For `CCOc1ccc(-c2cc(C)n3nc(C(N)=O)cc3n2)cc1`, the IC50 was “inactive”. In the case of `CCOC(=O)c1cc2sccc2n1CC(=O)N1CCc2ccccc21`, the IC50 is reported as > 35.9 µM (inactive). `COc1cccc(/C=N/Nc2cc(-n3nc(C)cc3-c3ccccc3)ncn2)c1O` was tested, and the IC50 was 6.45 µM. Work on `COc1cccc(/C=N/Nc2ccc([N+](=O)[O-])cn2)c1O` yielded an IC50 of 4.48 µM. Compound `c1cc2[nH]snc2c2nc(C3CC3)nc12` has an IC50 of 4.83 µM. `CC(C)(C)C(=O)Nc1ccc(N=Nc2ccccc2)cc1` was tested, and the IC50 was > 35.9 µM (inactive). `CS(=O)(=O)c1ccc(Sc2nc3ccccc3s2)c([N+](=O)[O-])c1` was tested, and the IC50 was > 35.9 µM (inactive). `CC(=O)Nc1ccc(SCC(=O)c2cc(C)n(-c3ccccc3)c2C)cc1` was tested, and the IC50 was > 35.9 µM (inactive). In the case of `O=S(=O)(c1ccc(F)cc1)c1snnc1-c1ccccc1`, the IC50 is reported as “inactive”. `Cc1nc(N2CCC(C(N)=O)CC2)c2c(-c3cccs3)csc2n1` was tested, and the IC50 was “inactive”. Work on `Cc1ncc(CO)c(/C=N/NC(=O)c2cc3c(s2)CCCC3)c1O` yielded an IC50 of 6.04 µM. In the case of `OCCN1CCN(C(=S)c2ccc(-c3ccccc3)cc2)CC1`, the IC50 is reported as > 35.9 µM (inactive). For `COc1cc([C@@H]2c3cc4c(cc3[C@@H](O[C@@H]3O[C@@H]5CO[C@@H](C)O[C@H]5[C@H](O)[C@H]3O)[C@H]3COC(=O)[C@H]23)OCO4)cc(OC)c1O`, the IC50 was > 35.9 µM (inactive). `CC(=O)c1cccc(-c2csc3ncnc(Sc4nnnn4C)c23)c1` gave an IC50 of 6.89 µM. With `COc1ccc(/C=C2\CC/C(=C\c3ccc(OC)c(OC)c3)C2=O)cc1OC` the IC50 was “inactive”. `CN(C)c1ccc(C(=S)Nc2ccccc2)cc1` was tested, and the IC50 was > 35.9 µM (inactive). For `Nc1nc(=S)c2ncn([C@@H]3O[C@H](CO)[C@@H](O)[C@H]3O)c2[nH]1`, the IC50 was 3.37 µM. In the case of `O=C(N/N=C\c1ccc([N+](=O)[O-])o1)C1COc2ccccc2O1` (stereo not given), the IC50 is reported as “inactive”. In the case of `C=C1C(=O)[C@]23C[C@H]1CCC2[C@@]1(C)C(C[C@@H]3O)[C@](C)(C(=O)OC)CC[C@@H]1O` (stereo not given in full), the IC50 is reported as 5.21 µM. `Cc1ccc(NC(=O)c2cc(C)n(-c3ccccc3)c2C)cc1` gave an IC50 of 0.223 µM. With `CN1C(=O)C2(C(C#N)=C(N)N(c3cc(Cl)cc(Cl)c3)C3=C2C(=O)CCC3)c2ccccc21` (stereo not given) the IC50 was “inactive”. With `NNC(=O)c1cc2ccccc2cc1O` the IC50 was “inactive”. Compound `O=C(NCCc1ccccc1)c1ccc2c(c1)OCCO2` has an IC50 of 5.83 µM. For `O=c1[nH]c2ccccc2n1C1CCN(C(c2cc3ccccc3o2)c2nnnn2Cc2ccccc2)CC1` (stereo not given), the IC50 was “inactive”. `Cc1cccc(C)c1NS(=O)(=O)c1ccc(-c2cnc(C3CC3)o2)cc1` was tested, and the IC50 was > 12 µM (inactive). In the case of `CC1CCN(C2=NC(=O)/C(=C/c3ccccc3F)S2)CC1`, the IC50 is reported as “inactive”. In the case of `O=C(COC(=O)c1ccc[nH]c1=O)Nc1ccc(N2CCCCC2)cc1`, the IC50 is reported as > 35.9 µM (inactive). In the case of `Cc1cccc(CN2CCN(C(=O)CCl)CC2)c1`, the IC50 is reported as > 12 µM (inactive). `COc1ccccc1C(=O)N(CCC1CCCN1C)c1nc2ccccc2s1` (stereo not given) gave an IC50 of 7.9 µM. For `Cc1ccc(OCC(=O)c2cc(C)n(-c3ccccc3)c2C)c([N+](=O)[O-])n1`, the IC50 was “inactive”. `O=C(CC(Nc1ccc(Cl)cc1Cl)C(=O)O)c1ccccc1` (stereo not given) showed an IC50 of 4.77 µM. `COC(=O)c1c(C)n(-c2ccc(OC)cc2)c2ccc(O)cc12` gave an IC50 of 8.88 µM. `Cc1ccc(/C=C2\SC(=S)N(CCCC(=O)NC3CCCC3)C2=O)cc1` was tested, and the IC50 was 4.58 µM. `COc1ccc(-c2cn[nH]c2-c2ccc(OC)cc2O)cc1` was tested, and the IC50 was 6.04 µM. `CC(=O)N1CCN(c2ncnc3ccccc23)CC1` was tested, and the IC50 was “inactive”. Work on `Cc1ccc2occ(/C=N/NC(=O)c3ccccc3Br)c(=O)c2c1` yielded an IC50 of 9.36 µM. For `O=C(CCl)NC(Cc1ccccc1)c1ccccc1` (stereo not given), the IC50 was “inactive”. `CNc1ncnc(Sc2nc(N)nc3nc[nH]c23)c1[N+](=O)[O-]` was tested, and the IC50 was 4.85 µM. Work on `O=C(Nc1cccc(C(F)(F)F)c1)Nc1nnc([C@@H]2C[C@H](O)[C@@H](CO)O2)s1` yielded an IC50 of 6.98 µM. For `Cc1cc2nccc(-c3ccncc3)n2n1`, the IC50 was “inactive”. `CNC(=O)c1cccn(Cc2ccc(C(F)(F)F)cc2)c1=O` was tested, and the IC50 was > 35.8 µM (inactive). `Clc1ccc(-c2csc3ncnc(NCCN4CCOCC4)c23)cc1` showed an IC50 of 8.01 µM. With `O=C(NC(NC(=S)N1CCOCC1)C(Cl)(Cl)Cl)c1ccc(Cl)cc1` (stereo not given) the IC50 was > 35.9 µM (inactive). For `CCOC(=O)C(=CNc1ccc(NC2=NCC(C)S2)cc1)C(=O)OCC` (stereo not given), the IC50 was “inactive”. `CC(C)(C)n1ncc2c(=O)n(CC(=O)OCc3ccccc3)cnc21` was tested, and the IC50 was “inactive”.

From PubChem BioAssay AID602167 (The Scripps Research Institute Molecular Screening Center, 2012)
